Reference: ChEMBL document CHEMBL4431295 (Medchemcomm, 2016)
Activity calls are given as the source filed them. The rule behind the calls is not given here.

Experiments:
HepG2 = assay: Antiproliferative activity against human HepG2 cells after 72 hrs by MTT assay; type: functional, cell-based; details: HepG2, 72 h
MGC-803 = assay: Antiproliferative activity against human MGC803 cells after 72 hrs by MTT assay; type: functional, cell-based; details: MGC-803, 72 h
SK-N-SH [1] = assay: Antiproliferative activity against human SK-N-SH cells after 72 hrs by MTT assay; type: functional, cell-based
GES1 = assay: Cytotoxicity against human GES-1 cells assessed as cell growth inhibition after 72 hrs by MTT assay; type: cell-based; details: GES1, 72 h
SK-N-SH [2] = assay: Induction of apoptosis in human SK-N-SH cells assessed as formation of apoptotic bodies at 5 to 10 uM after 24 hrs by Hoechst 33258 staining based fluorescence microscopic analysis; type: functional, cell-based
SK-N-SH [3] = assay: Induction of apoptosis in human SK-N-SH cells assessed as live cells at 2.5 uM by Annexin V-FITC/propidium iodide staining based flow cytometry (reference value: 90.9%); type: functional
SK-N-SH [4] = assay: Induction of apoptosis in human SK-N-SH cells assessed as early apoptotic cells at 20 uM by Annexin V-FITC/propidium iodide staining based flow cytometry (reference value: 7.1%); type: functional
SK-N-SH [5] = assay: Cell cycle arrest in human SK-N-SH cells assessed as G2/M phase accumulation at 2.5 uM after 24 hrs by FITC/propidium iodide staining based flow cytometry (reference value: 6.03%); type: functional
SK-N-SH [6] = assay: Induction of apoptosis in human SK-N-SH cells assessed as increase in caspase-3 expression at 5 to 10 uM after 24 hrs by Western blot analysis; type: functional, cell-based
SK-N-SH [7] = assay: Induction of apoptosis in human SK-N-SH cells assessed as early apoptotic cells at 2.5 uM by Annexin V-FITC/propidium iodide staining based flow cytometry (reference value: 7.1%); type: functional
SK-N-SH [8] = assay: Cell cycle arrest in human SK-N-SH cells assessed as G1/G0 phase accumulation after 24 hrs by FITC/propidium iodide staining based flow cytometry; type: functional
SK-N-SH [9] = assay: Cell cycle arrest in human SK-N-SH cells assessed as G2/M phase accumulation at 10 uM after 24 hrs by FITC/propidium iodide staining based flow cytometry (reference value: 6.03%); type: functional
SK-N-SH [10] = assay: Cell cycle arrest in human SK-N-SH cells assessed as G1/G0 phase accumulation at 2.5 uM after 24 hrs by FITC/propidium iodide staining based flow cytometry (reference value: 57.72%); type: functional
SK-N-SH [11] = assay: Induction of apoptosis in human SK-N-SH cells assessed as necrotic cells at 20 uM by Annexin V-FITC/propidium iodide staining based flow cytometry (reference value: 0.3%); type: functional
SK-N-SH [12] = assay: Induction of apoptosis in human SK-N-SH cells assessed as late apoptotic cells at 10 uM by Annexin V-FITC/propidium iodide staining based flow cytometry (reference value: 1.7%); type: functional
SK-N-SH [13] = assay: Induction of apoptosis in human SK-N-SH cells assessed as decrease in pro-caspase-3 expression at 5 to 10 uM after 24 hrs by Western blot analysis; type: functional, cell-based
SK-N-SH [14] = assay: Induction of apoptosis in human SK-N-SH cells assessed as late apoptotic cells at 1.25 uM by Annexin V-FITC/propidium iodide staining based flow cytometry (reference value: 1.7%); type: functional
SK-N-SH [15] = assay: Cell cycle arrest in human SK-N-SH cells assessed as S phase accumulation at 10 uM after 24 hrs by FITC/propidium iodide staining based flow cytometry (reference value: 37.4%); type: functional
SK-N-SH [16] = assay: Induction of apoptosis in human SK-N-SH cells assessed as necrotic cells at 5 uM by Annexin V-FITC/propidium iodide staining based flow cytometry (reference value: 0.3%); type: functional
SK-N-SH [17] = assay: Induction of apoptosis in human SK-N-SH cells assessed as early apoptotic cells at 1.25 uM by Annexin V-FITC/propidium iodide staining based flow cytometry (reference value: 7.1%); type: functional
SK-N-SH [18] = assay: Cell cycle arrest in human SK-N-SH cells assessed as G1/G0 phase accumulation at 10 uM after 24 hrs by FITC/propidium iodide staining based flow cytometry (reference value: 57.72%); type: functional
SK-N-SH [19] = assay: Induction of apoptosis in human SK-N-SH cells assessed as chromatin shrinkage at 5 to 10 uM after 24 hrs by Hoechst 33258 staining based fluorescence microscopic analysis; type: functional, cell-based
SK-N-SH [20] = assay: Induction of apoptosis in human SK-N-SH cells assessed as increase in p53 expression at 5 to 10 uM after 24 hrs by Western blot analysis; type: functional, cell-based
SK-N-SH [21] = assay: Induction of apoptosis in human SK-N-SH cells assessed as late apoptotic cells at 2.5 uM by Annexin V-FITC/propidium iodide staining based flow cytometry (reference value: 1.7%); type: functional
SK-N-SH [22] = assay: Induction of apoptosis in human SK-N-SH cells assessed as necrotic cells at 10 uM by Annexin V-FITC/propidium iodide staining based flow cytometry (reference value: 0.3%); type: functional
SK-N-SH [23] = assay: Induction of apoptosis in human SK-N-SH cells assessed as live cells at 20 uM by Annexin V-FITC/propidium iodide staining based flow cytometry (reference value: 90.9%); type: functional
SK-N-SH [24] = assay: Induction of apoptosis in human SK-N-SH cells assessed as necrotic cells at 2.5 uM by Annexin V-FITC/propidium iodide staining based flow cytometry (reference value: 0.3%); type: functional
SK-N-SH [25] = assay: Induction of apoptosis in human SK-N-SH cells assessed as late apoptotic cells at 20 uM by Annexin V-FITC/propidium iodide staining based flow cytometry (reference value: 1.7%); type: functional
SK-N-SH [26] = assay: Induction of apoptosis in human SK-N-SH cells assessed as necrotic cells at 1.25 uM by Annexin V-FITC/propidium iodide staining based flow cytometry (reference value: 0.3%); type: functional
SK-N-SH [27] = assay: Induction of apoptosis in human SK-N-SH cells assessed as live cells at 1.25 uM by Annexin V-FITC/propidium iodide staining based flow cytometry (reference value: 90.9%); type: functional
SK-N-SH [28] = assay: Cell cycle arrest in human SK-N-SH cells assessed as S phase accumulation at 5 uM after 24 hrs by FITC/propidium iodide staining based flow cytometry (reference value: 37.4%); type: functional
SK-N-SH [29] = assay: Induction of apoptosis in human SK-N-SH cells assessed as early apoptotic cells at 10 uM by Annexin V-FITC/propidium iodide staining based flow cytometry (reference value: 7.1%); type: functional
SK-N-SH [30] = assay: Induction of apoptosis in human SK-N-SH cells assessed as late apoptotic cells at 5 uM by Annexin V-FITC/propidium iodide staining based flow cytometry (reference value: 1.7%); type: functional
SK-N-SH [31] = assay: Induction of apoptosis in human SK-N-SH cells assessed as cell rounding at 5 to 10 uM after 24 hrs by Hoechst 33258 staining based fluorescence microscopic analysis; type: functional
SK-N-SH [32] = assay: Cell cycle arrest in human SK-N-SH cells assessed as G1/G0 phase accumulation at 5 uM after 24 hrs by FITC/propidium iodide staining based flow cytometry (reference value: 57.72%); type: functional
SK-N-SH [33] = assay: Induction of apoptosis in human SK-N-SH cells assessed as live cells at 5 uM by Annexin V-FITC/propidium iodide staining based flow cytometry (reference value: 90.9%); type: functional
SK-N-SH [34] = assay: Cell cycle arrest in human SK-N-SH cells assessed as G2/M phase accumulation at 5 uM after 24 hrs by FITC/propidium iodide staining based flow cytometry (reference value: 6.03%); type: functional
SK-N-SH [35] = assay: Cell cycle arrest in human SK-N-SH cells assessed as S phase accumulation at 2.5 uM after 24 hrs by FITC/propidium iodide staining based flow cytometry (reference value: 37.4%); type: functional
SK-N-SH [36] = assay: Induction of apoptosis in human SK-N-SH cells assessed as live cells at 10 uM by Annexin V-FITC/propidium iodide staining based flow cytometry (reference value: 90.9%); type: functional
SK-N-SH [37] = assay: Induction of apoptosis in human SK-N-SH cells assessed as early apoptotic cells at 5 uM by Annexin V-FITC/propidium iodide staining based flow cytometry (reference value: 7.1%); type: functional

Structure (SMILES): O=C(/C=C/c1ccc(F)cc1)c1ccc(NCc2cn(Cc3ccccc3)nn2)cc1
- IC50 (HepG2): 38.8 µM
- IC50 (MGC-803): 40.2 µM
- IC50 (SK-N-SH [1]): 42.4 µM

Structure (SMILES): O=c1[nH]cc(F)c(=O)[nH]1 [FLUOROURACIL]
- IC50 (HepG2): 10.3 µM
- IC50 (MGC-803): 7.22 µM
- IC50 (GES1): 7.22 µM
- IC50 (SK-N-SH [1]): 10.3 µM

Structure (SMILES): O=C(/C=C/c1cccnc1)c1ccc(NCc2cn(Cc3ccccc3)nn2)cc1
- IC50 (HepG2): 4.37 µM
- IC50 (MGC-803): 3.43 µM
- IC50 (SK-N-SH [1]): 5.15 µM

Structure (SMILES): O=C(/C=C/c1cccc(Cl)c1)c1ccc(OCc2cn(Cc3ccccc3)nn2)cc1
- IC50 (HepG2): 24 µM
- IC50 (MGC-803): > 64 µM
- IC50 (SK-N-SH [1]): 19.6 µM

Structure (SMILES): O=C(/C=C/c1cccs1)c1ccc(NCc2cn(Cc3ccc(Cl)cc3)nn2)cc1
- IC50 (HepG2): 39.2 µM
- IC50 (MGC-803): 29.6 µM
- IC50 (SK-N-SH [1]): 30.9 µM

Structure (SMILES): O=C(/C=C/c1ccc(Cl)cc1Cl)c1ccc(OCc2cn(Cc3ccccc3)nn2)cc1
- IC50 (HepG2): 27.9 µM
- IC50 (MGC-803): > 64 µM
- IC50 (SK-N-SH [1]): 36.4 µM

Structure (SMILES): COc1ccccc1/C=C/C(=O)c1ccc(OCc2cn(Cc3ccccc3)nn2)cc1
- IC50 (HepG2): 24.8 µM
- IC50 (MGC-803): > 64 µM
- IC50 (SK-N-SH [1]): 26.7 µM

Structure (SMILES): Nc1ccc(C(=O)/C=C/c2ccc(Cl)cc2)cc1
- IC50 (HepG2): 55.6 µM
- IC50 (MGC-803): 61.2 µM
- IC50 (SK-N-SH [1]): 58.2 µM

Structure (SMILES): O=C(/C=C/c1cc(F)cc(F)c1)c1ccc(NCc2cn(Cc3ccccc3)nn2)cc1
- IC50 (HepG2): > 64 µM
- IC50 (MGC-803): 23.5 µM
- IC50 (SK-N-SH [1]): 27.3 µM

Structure (SMILES): O=C(/C=C/c1cccnc1)c1ccc(NCc2cn(Cc3ccc(Cl)cc3)nn2)cc1
- IC50 (HepG2): 9.32 µM
- IC50 (MGC-803): 7.03 µM
- IC50 (SK-N-SH [1]): 4.36 µM

Structure (SMILES): CN1CCN(c2ccc(/C=C/C(=O)c3ccc(OCc4cn(Cc5ccccc5)nn4)cc3)cc2F)CC1
- IC50 (HepG2): 5.47 µM
- IC50 (MGC-803): 11.6 µM
- IC50 (SK-N-SH [1]): 6.44 µM

Structure (SMILES): O=C(/C=C/c1ccncc1)c1ccc(NCc2cn(Cc3ccccc3)nn2)cc1
- IC50 (HepG2): 7.02 µM
- IC50 (MGC-803): 17.1 µM
- IC50 (SK-N-SH [1]): 5.23 µM

Structure (SMILES): O=C(/C=C/c1ccc(Cl)cc1)c1ccc(OCc2cn(Cc3ccccc3)nn2)cc1
- IC50 (HepG2): 21 µM
- IC50 (MGC-803): 43.2 µM
- IC50 (SK-N-SH [1]): 17.5 µM

Structure (SMILES): COc1cccc(Cn2cc(CNc3ccc(C(=O)/C=C/c4cccnc4)cc3)nn2)c1
- IC50 (HepG2): 2.21 µM
- Activity (SK-N-SH [2]): Active
- Activity (SK-N-SH [3]): 91.4%
- Activity (SK-N-SH [4]): 39.7%
- Activity (SK-N-SH [5]): 18.71%
- Activity (SK-N-SH [6]): Active
- Activity (SK-N-SH [7]): 5.8%
- Activity (SK-N-SH [8]): Dose-dependent effect
- IC50 (MGC-803): 2.73 µM
- Activity (SK-N-SH [9]): 7.17%
- Activity (SK-N-SH [10]): 67.06%
- Activity (SK-N-SH [11]): 1.6%
- Activity (SK-N-SH [12]): 18.8%
- Activity (SK-N-SH [13]): Active
- Activity (SK-N-SH [14]): 1.2%
- Activity (SK-N-SH [15]): 10.34%
- Activity (SK-N-SH [16]): 0.8%
- Activity (SK-N-SH [17]): 5.7%
- Activity (SK-N-SH [18]): 81.8%
- Activity (SK-N-SH [19]): Active
- Activity (SK-N-SH [20]): Active
- Activity (SK-N-SH [21]): 2.1%
- Activity (SK-N-SH [22]): 0.5%
- Activity (SK-N-SH [23]): 1%
- Activity (SK-N-SH [24]): 0.7%
- IC50 (GES1): 31.1 µM
- Activity (SK-N-SH [25]): 57.7%
- Activity (SK-N-SH [26]): 0.3%
- Activity (SK-N-SH [27]): 92.9%
- Activity (SK-N-SH [28]): 15.65%
- Activity (SK-N-SH [29]): 31.9%
- Activity (SK-N-SH [30]): 2.5%
- Activity (SK-N-SH [31]): Active
- Activity (SK-N-SH [32]): 71.27%
- Activity (SK-N-SH [33]): 87.1%
- Activity (SK-N-SH [34]): 14.2%
- Activity (SK-N-SH [35]): 19.11%
- IC50 (SK-N-SH [1]): 1.53 µM
- Activity (SK-N-SH [36]): 48.8%
- Activity (SK-N-SH [37]): 9.6%
